Here are results for two molecules from publication PMC5447808 (Pulmonary pharmacology & therapeutics, 2017).

Each structure is given as a SMILES string.

Usually Ki stands for the equilibrium dissociation constant of an inhibitor or competing ligand from its target.

For assay [1], the target named is T1, KAT8 (lysine acetyltransferase 8) (Homo sapiens, UniProt Q9H7Z6).
T1 sequence (Q9H7Z6 2-458): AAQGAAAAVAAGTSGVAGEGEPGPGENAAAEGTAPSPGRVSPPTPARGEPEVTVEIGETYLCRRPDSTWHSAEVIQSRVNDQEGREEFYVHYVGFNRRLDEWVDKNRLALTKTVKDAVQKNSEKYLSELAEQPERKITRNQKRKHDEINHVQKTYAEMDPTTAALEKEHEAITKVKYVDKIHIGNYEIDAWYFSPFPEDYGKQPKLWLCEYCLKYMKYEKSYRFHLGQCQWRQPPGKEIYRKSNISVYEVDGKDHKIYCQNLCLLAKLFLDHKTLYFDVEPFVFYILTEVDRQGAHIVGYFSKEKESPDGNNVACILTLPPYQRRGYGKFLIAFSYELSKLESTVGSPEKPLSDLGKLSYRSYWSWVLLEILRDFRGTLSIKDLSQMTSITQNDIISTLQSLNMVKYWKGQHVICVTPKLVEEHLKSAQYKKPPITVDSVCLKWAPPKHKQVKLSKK
The assay is described as follows: enzyme kinetics, Km app. for Ac-CoA without inhibitor. The assay is classed as biochemical. The note with it: read-out: Ac-CoA / Km app.

The target in assay [2] is T1, KAT8 (lysine acetyltransferase 8). The assay is described as follows: enzyme kinetics of KAT8 HAT activity, fluorescent detection of CoASH. It counts as biochemical.

With `CC(=O)SCCNC(=O)CCNC(=O)[C@H](O)C(C)(C)COP(=O)(O)OP(=O)(O)OC[C@H]1O[C@@H](n2cnc3c(N)ncnc32)[C@H](O)[C@@H]1OP(=O)(O)O` [Ac-CoA], the Km in assay [1] worked out at 4.1 ± 1.1 µM.

Take `CCCCCCCc1ccc(CCc2cccc(O)c2C(=O)O)cc1` [MG149]: the Ki in assay [2] is 39 ± 7.7 µM.
